Assay results reported in patent publication US8410085B2, “Phospholipid compositions and uses thereof” (Baylor College of Medicine, priority 2007, dated 2013).
Values joined by “and” are separate entries in the source; they are usually repeats but may differ in a detail not shown here. Equal entries are not always repeated. “Also recorded” adds a separate entry of the source.

How the values were obtained:
[1] = molecular target: T1, LRH-1 (Homo sapiens, UniProt O00482); experiment: LRH-1 Luc reporter in C3A HepG2 cells (endogenous hLRH-1); conditions: C3A/HepG2 cells or cells with non-target control siRNAs
T1 sequence (O00482 whole entry): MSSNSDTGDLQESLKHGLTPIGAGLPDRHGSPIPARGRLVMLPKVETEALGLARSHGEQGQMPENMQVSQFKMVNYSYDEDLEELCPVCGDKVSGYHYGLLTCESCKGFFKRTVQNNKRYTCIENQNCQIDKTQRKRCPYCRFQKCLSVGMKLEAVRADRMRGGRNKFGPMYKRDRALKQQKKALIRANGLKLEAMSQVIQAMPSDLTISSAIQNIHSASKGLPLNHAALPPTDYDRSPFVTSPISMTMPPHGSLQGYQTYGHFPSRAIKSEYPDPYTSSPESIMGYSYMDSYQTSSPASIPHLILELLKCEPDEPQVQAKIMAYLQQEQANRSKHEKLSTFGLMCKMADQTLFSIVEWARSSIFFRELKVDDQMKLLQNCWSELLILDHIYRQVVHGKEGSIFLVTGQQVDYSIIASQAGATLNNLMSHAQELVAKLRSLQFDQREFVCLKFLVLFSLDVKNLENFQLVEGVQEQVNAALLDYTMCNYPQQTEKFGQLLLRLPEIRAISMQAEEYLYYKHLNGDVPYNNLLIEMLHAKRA

[2] = tested on: hepatic expression of Cyp7A1, Cyp8B1, mSR-BI, SHP; experiment: hepatic gene expression (Q-PCR) in wild type mice after oral gavage; assay type: in vivo, mouse; conditions: 100 mg/kg oral, five times over three days
Text: (§1) Total liver RNA was isolated and prepared for the cDNA. […] Total liver RNA was isolated and prepared for cDNA.

[3] = tested on: LRH-1 target Cyp8B1; experiment: hCYP8B1 expression by Q-PCR in C3A HepG2 cells
[4] = molecular target: mouse CAR (Mus musculus, UniProt O35627); experiment: nuclear receptor cotransfection (RE-tk-luc), HeLa cells; conditions: 100 μM
Chain of mouse CAR (O35627 whole entry): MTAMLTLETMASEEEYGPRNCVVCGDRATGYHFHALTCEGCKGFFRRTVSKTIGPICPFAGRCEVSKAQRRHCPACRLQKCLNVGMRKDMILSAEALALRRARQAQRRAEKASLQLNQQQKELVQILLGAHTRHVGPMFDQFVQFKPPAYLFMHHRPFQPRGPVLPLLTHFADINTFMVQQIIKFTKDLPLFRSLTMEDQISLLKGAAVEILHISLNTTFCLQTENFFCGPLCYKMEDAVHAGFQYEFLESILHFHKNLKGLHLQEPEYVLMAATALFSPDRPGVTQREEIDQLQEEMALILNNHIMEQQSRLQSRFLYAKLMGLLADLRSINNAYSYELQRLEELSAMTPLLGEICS

[5] = tested on: LRH-1; experiment: hepatic gene expression in LRH-1 f/f mice infected with Ad-Cre; assay type: in vivo, mouse; conditions: 100 mg/kg oral, 100 mg/kg
Text: as §1

[6] = molecular target: T1, LRH-1; conditions: CV-1 and HEK293T cells, compared with HeLa
[7] = molecular target: RXRα (Homo sapiens, UniProt P19793); experiment: nuclear receptor cotransfection (RE-tk-luc), HeLa cells; conditions: 100 μM
[8] = molecular target: human PXR (Homo sapiens, UniProt O75469); experiment: as above; conditions: 100 μM
[9] = molecular target: mouse LRH-1 (Mus musculus, UniProt P45448); experiment: mouse LRH-1 transactivation, reporter cotransfection
Chain of mouse LRH-1 (P45448 whole entry): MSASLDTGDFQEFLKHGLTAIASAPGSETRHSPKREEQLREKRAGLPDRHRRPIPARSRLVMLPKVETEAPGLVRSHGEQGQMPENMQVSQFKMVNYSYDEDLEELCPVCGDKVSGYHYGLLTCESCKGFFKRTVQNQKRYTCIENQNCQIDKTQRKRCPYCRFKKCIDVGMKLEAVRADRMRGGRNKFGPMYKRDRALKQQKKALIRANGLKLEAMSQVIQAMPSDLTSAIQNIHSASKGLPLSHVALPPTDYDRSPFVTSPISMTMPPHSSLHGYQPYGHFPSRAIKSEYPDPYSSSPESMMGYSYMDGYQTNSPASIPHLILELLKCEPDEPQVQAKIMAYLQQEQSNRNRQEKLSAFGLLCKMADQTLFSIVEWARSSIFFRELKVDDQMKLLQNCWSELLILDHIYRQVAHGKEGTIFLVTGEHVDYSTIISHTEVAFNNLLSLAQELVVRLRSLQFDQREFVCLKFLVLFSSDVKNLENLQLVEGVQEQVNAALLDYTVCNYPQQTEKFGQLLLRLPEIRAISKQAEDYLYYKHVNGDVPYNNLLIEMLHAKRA

[10] = molecular target: human CAR (Homo sapiens, UniProt Q14994); experiment: nuclear receptor cotransfection (RE-tk-luc), HeLa cells; conditions: 100 μM
Chain of human CAR (Q14994 whole entry): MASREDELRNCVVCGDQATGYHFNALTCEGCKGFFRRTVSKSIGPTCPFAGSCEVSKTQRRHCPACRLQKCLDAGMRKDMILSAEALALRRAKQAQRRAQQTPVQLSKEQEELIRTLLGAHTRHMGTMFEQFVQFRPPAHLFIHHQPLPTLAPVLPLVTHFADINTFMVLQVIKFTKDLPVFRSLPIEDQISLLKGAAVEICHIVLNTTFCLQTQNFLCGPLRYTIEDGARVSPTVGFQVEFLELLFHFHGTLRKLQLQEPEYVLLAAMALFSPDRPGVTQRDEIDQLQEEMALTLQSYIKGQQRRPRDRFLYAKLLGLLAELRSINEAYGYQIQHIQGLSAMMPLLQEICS

[11] = molecular target: T1, LRH-1; experiment: human LRH-1 transactivation, HeLa cotransfection with LRH-1/SF-1 response element luciferase reporter; assay type: cell-based; set-up: expressed in transfected cells; host or cells: HeLa (A1, A3); conditions: HeLa cells
Procedure: Controls (vector only and no lipid) are as indicated. […] Cells were treated with 100 μM of the indicated PCs and luciferase expression (RLU, relative light units) was normalized using an internal β-galactosidase control. vec, empty vector; −, ethanol solvent control.
HeLa cells were transfected with an hLRH-1 expression vector along with mSHP1080-Luc reporter. […] Oct4-PPmut Luc is identical to Oct4-PP Luc except for the insertion of point mutations in the DR0 element. […] HeLa cells were cotransfected with various nuclear receptors and the reporter plasmid (RE-tk-luc). […] Data are expressed for each reporter as fold activation of normalized luciferase activity relative to veh-treated cells.
A number of different phosphatidylcholine (PC) species were screened for effects on human LRH-1 transactivation in HeLa cell cotransfections with a synthetic luciferase reporter containing multiple copies of an LRH-1/SF-1 response element.

[12] = molecular target: PPARα (Homo sapiens, UniProt Q07869); experiment: nuclear receptor cotransfection (RE-tk-luc), HeLa cells; conditions: 100 μM
[13] = molecular target: PPARδ (Homo sapiens, UniProt Q03181); experiment: as above; conditions: 100 μM
Chain of PPARδ (Q03181 whole entry, species assumed): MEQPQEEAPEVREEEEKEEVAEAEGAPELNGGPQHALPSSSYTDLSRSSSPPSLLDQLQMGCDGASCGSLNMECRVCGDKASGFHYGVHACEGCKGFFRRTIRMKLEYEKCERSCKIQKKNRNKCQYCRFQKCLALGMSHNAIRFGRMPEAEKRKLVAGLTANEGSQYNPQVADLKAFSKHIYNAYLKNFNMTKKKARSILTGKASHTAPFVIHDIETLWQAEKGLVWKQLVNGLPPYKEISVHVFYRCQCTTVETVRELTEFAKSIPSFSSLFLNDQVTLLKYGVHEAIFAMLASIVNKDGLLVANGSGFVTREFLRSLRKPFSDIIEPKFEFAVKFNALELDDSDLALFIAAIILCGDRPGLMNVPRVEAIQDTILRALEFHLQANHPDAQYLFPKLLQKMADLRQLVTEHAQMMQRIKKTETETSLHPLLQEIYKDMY

[14] = molecular target: SF-1 (Homo sapiens, UniProt Q13285); experiment: SF-1 transactivation, reporter cotransfection in HeLa cells; conditions: 100 μM
[15] = tested on: wild type male mice; experiment: bile acids, serum glucose and NEFA in wild type mice after oral gavage; assay type: in vivo, mouse; conditions: 100 mg/kg oral
[16] = molecular target: PPARγ (Homo sapiens, UniProt P37231); experiment: nuclear receptor cotransfection (RE-tk-luc), HeLa cells; conditions: 100 μM
[17] = molecular target: hLRH-1 LBD / SRC-3 receptor interaction domain (Homo sapiens, UniProt O00482); experiment: mammalian two-hybrid assay, VP16-hLRH1 LBD with Gal4-SRC3 RID in HeLa cells
[18] = molecular target: GST-hLRH-1 LBD / SRC-3 (Homo sapiens, UniProt O00482); experiment: GST pulldown, GST-hLRH-1 LBD with in vitro translated 35S-labeled SRC-3
Chain of GST-hLRH-1 LBD / SRC-3 (O00482 300-539 limits assumed): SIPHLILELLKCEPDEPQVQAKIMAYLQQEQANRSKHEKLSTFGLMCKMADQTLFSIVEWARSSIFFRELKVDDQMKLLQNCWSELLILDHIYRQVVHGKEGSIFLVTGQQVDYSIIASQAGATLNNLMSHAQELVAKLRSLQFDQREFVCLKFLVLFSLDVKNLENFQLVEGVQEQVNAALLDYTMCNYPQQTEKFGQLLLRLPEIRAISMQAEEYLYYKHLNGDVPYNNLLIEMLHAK
Chain of GST-hLRH-1 LBD / SRC-3 (Q9Y6Q9 whole entry partner, the tested form may be a part): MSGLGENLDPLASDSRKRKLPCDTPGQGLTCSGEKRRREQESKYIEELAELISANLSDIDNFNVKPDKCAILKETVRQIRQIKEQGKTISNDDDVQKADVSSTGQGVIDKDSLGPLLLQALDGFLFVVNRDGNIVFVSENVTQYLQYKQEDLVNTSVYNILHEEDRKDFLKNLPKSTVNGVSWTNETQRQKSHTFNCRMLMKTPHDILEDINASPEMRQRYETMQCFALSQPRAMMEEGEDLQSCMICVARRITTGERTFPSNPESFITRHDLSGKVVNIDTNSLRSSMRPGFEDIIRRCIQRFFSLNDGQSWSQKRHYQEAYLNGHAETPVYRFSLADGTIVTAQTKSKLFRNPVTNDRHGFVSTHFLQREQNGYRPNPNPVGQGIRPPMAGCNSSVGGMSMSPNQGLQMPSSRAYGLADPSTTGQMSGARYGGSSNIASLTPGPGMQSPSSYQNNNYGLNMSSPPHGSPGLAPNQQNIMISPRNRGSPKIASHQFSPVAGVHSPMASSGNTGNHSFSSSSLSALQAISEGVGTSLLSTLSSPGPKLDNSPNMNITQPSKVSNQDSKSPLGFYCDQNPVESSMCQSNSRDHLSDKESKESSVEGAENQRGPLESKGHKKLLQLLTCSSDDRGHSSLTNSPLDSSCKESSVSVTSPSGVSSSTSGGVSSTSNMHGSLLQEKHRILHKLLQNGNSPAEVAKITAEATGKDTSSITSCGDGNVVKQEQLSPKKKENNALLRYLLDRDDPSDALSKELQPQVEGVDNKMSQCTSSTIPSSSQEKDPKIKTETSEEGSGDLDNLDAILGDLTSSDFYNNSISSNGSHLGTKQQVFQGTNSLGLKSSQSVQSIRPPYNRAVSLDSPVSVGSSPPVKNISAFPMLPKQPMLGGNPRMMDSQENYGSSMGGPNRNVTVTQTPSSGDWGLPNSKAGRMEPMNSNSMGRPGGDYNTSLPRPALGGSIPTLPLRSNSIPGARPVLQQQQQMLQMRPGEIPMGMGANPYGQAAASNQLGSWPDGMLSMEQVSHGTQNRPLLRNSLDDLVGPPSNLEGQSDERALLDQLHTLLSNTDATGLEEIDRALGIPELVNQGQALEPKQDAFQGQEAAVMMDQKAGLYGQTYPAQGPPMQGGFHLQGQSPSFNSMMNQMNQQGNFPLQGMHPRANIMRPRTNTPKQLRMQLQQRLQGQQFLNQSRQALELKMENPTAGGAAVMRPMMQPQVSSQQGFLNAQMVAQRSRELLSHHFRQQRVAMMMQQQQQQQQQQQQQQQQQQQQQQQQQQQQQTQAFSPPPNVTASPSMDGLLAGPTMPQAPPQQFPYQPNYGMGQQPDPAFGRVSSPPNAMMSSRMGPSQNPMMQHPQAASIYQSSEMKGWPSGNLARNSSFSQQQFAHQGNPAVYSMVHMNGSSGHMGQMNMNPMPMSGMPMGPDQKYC

[19] = molecular target: TRβ (Homo sapiens, UniProt P10828); experiment: nuclear receptor cotransfection (RE-tk-luc), HeLa cells; conditions: 100 μM
[20] = molecular target: LXRα (Homo sapiens, UniProt Q13133); experiment: as above; conditions: 100 μM
Chain of LXRα (Q13133 whole entry): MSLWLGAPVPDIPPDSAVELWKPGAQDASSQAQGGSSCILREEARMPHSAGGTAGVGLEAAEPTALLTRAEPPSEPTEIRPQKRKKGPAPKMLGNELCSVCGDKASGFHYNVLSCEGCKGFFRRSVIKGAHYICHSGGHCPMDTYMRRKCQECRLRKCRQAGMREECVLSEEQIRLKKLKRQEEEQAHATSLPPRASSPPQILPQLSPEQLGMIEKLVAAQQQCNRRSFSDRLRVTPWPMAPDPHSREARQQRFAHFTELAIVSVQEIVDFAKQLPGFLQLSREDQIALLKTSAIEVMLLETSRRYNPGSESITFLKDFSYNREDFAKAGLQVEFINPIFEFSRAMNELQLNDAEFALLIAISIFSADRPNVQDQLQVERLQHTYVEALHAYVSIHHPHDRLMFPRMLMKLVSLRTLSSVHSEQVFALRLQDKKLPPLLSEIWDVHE

[21] = molecular target: FXR (Homo sapiens, UniProt Q96RI1); experiment: as above; conditions: 100 μM
[22] = molecular target: T1, LRH-1; experiment: mouse SHP promoter (mSHP1080-Luc) activation by hLRH-1 in HeLa cells; conditions: 100 μM
[23] = molecular target: T1, LRH-1; experiment: Oct4 proximal promoter (Oct4-PP Luc) activation by hLRH-1 in COS-1 cells
[24] = molecular target: ERα (Homo sapiens, UniProt P03372); experiment: nuclear receptor cotransfection (RE-tk-luc), HeLa cells; conditions: 100 μM
Chain of ERα (P03372 whole entry, species assumed): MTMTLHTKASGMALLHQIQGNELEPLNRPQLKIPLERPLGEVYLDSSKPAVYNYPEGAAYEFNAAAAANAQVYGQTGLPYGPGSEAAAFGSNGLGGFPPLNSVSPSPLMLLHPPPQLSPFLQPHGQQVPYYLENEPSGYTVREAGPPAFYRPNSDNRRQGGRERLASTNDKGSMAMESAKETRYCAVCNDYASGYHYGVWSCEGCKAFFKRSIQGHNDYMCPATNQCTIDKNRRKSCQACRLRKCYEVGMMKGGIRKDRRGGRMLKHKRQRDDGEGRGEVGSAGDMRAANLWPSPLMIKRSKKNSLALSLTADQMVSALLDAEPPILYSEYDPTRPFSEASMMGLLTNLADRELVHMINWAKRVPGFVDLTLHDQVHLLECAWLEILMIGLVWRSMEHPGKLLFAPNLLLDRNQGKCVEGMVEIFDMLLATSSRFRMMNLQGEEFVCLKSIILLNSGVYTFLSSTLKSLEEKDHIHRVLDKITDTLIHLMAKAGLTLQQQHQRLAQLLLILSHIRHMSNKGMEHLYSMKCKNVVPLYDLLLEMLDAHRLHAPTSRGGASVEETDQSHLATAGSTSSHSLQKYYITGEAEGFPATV

[25] = molecular target: RARβ (Homo sapiens, UniProt P10826); experiment: as above; conditions: 100 μM

LRH-1 Luc luciferase activity [1]: increased luciferase | expression of Cyp8B1 ([3]; C3A/HepG2 cells or cells with non-target control siRNAs): modestly but significantly induced | Cyp8B1 response when LRH-1 expression is knocked down ([3]; siRNA hLRH-1): lost | activation or inhibition of mouse CAR [4]: did not activate or inhibit | LRH-1 transactivation response [6]: similar, but lesser responses | activation or inhibition of RXRα [7]: did not activate or inhibit | activation or inhibition of human PXR [8]: did not activate or inhibit | mouse LRH-1 response versus human LRH-1 [9]: essentially equivalent responses | activation or inhibition of human CAR [10]: did not activate or inhibit | LRH-1 transactivation (luciferase) ([11]; 100 μM): responses | EC50 ([11]; reporter gene, dose response 1-250 μM, read-out: EC50 for activation of hLRH-1): ~60 µM and 57 µM | activation or inhibition of PPARα [12]: did not activate or inhibit | activation or inhibition of PPARδ [13]: did not activate or inhibit | SF-1 activation [14]: activate SF-1 | activation or inhibition of PPARγ [16]: did not activate or inhibit | interaction of hLRH-1 LBD with SRC-3 RID [17]: stimulated | interaction of GST-LRH1 with SRC-3 ([18]; GST pulldown, 100 μM): further increased | increase of SRC-3 binding ([18]; PhosphorImager quantitation): approximately 3 fold | activation or inhibition of TRβ [19]: did not activate or inhibit | activation or inhibition of LXRα [20]: did not activate or inhibit | activation or inhibition of FXR [21]: did not activate or inhibit | increase of LRH-1 transactivation of the native mouse SHP promoter [22]: approximately 2 fold | response with the Oct4 promoter ([23]; COS-1 cells, Oct4-PP Luc): induced a similar response | activation of Oct4-PPmut Luc ([23]; point mutations in the DR0 element): eliminates activation | activation or inhibition of ERα [24]: did not activate or inhibit | activation or inhibition of RARβ [25]: did not activate or inhibit
Compound: CCCCCCCCCCC(=O)OCC(COP(=O)([O-])OCC[N+](C)(C)C)OC(=O)CCCCCCCCCC (stereo not drawn) [DUPC, diundecanoylphosphatidylcholine]
hepatic expression of Cyp7A1 [2]: significantly induced | hepatic expression of Cyp8B1 [2]: significantly induced | hepatic expression of SHP [2]: repressed | hepatic expression of mSR-BI [2]: significantly induced | hepatic gene expression response when LRH-1 gene removed by Cre [5]: not observed; also recorded: completely absent | liver bile acids [15]: somewhat lower | serum bile acid levels [15]: substantially elevated | serum free fatty acids [15]: decreased levels | serum glucose levels [15]: decreased serum glucose levels | total bile acid pool [15]: significant increase
